From PubChem BioAssay AID1259411 (Chemical Carcinogenesis Research Information System (CCRIS), 2018)
Active and inactive are the calls of the source. The rule behind the calls is not given here.

Tested on: rodent carcinogenicity bioassays, tumor incidence
Test: CCRIS carcinogenicity studies
Procedure, shortened: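 NCI-built, expert-reviewed records of carcinogenicity and related test outcomes (mutagenicity, tumor promotion/inhibition) compiled from published and report sources, historical span 1985-2011, not updated.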

For `C/C=C1/C[C@@H](C)[C@@](C)(O)C(=O)OC/C2=C/CN(C)CC[C@@H](OC1=O)C2=O`, the carcinogen call (Species: RAT, Strain/Sex: ACI/MALE, Route: INTRAPERITONEAL, Dose: 22 MG/KG IN SALINE 2/WK FOR 4 WK, THEN 1/WK FOR 52 WK, Tumor Site: Type of Lesion: LIVER: ADENOMA) was “active; positive”.
With `O=c1[nH]cc(F)c(=O)[nH]1` the carcinogen call (Species: MOUSE, Strain/Sex: B6C3F1/FEMALE, Route: ORAL, Dose: 0, 30, 60 PPM IN DRINKING WATER FOR 82 WK (STUDY DURATION: 86 WK), Dose: 0, 30, 60 PPM IN DRINKING WATER FOR 82 WK (STUDY DURATION: 86 WK)) was “inactive; negative”, the carcinogen call (Species: MOUSE, Strain/Sex: B6C3F1/MALE, Route: ORAL, Dose: 0, 30, 60 PPM IN DRINKING WATER FOR 82 WK (STUDY DURATION: 86 WK), Dose: 0, 30, 60 PPM IN DRINKING WATER FOR 82 WK (STUDY DURATION: 86 WK)) was “inactive; negative” and the carcinogen call (Species: MOUSE, Strain/Sex: BALB/FEMALE, Route: INTRAPERITONEAL, Dose: 0, 30 MG/KG IN STERILE SALINE 1/WK FOR 50 WK (STUDY DURATION: 105 WK), Tumor Site: Type of Lesion: LUNG: TUMOR, LYMPHORETICULAR SYSTEM: LYMPHOMA OR LEUKEMIA) was “active; positive”. The carcinogen call (Species: MOUSE, Strain/Sex: BALB/MALE, Route: INTRAPERITONEAL, Dose: 0, 30 MG/KG IN STERILE SALINE 1/WK FOR 50 WK (STUDY DURATION: 105 WK), Tumor Site: Type of Lesion: LUNG: TUMOR) was “active; positive”, the carcinogen call (Species: RAT, Strain/Sex: F344/FEMALE, Route: ORAL, Dose: 0, 62, 125 PPM IN DRINKING WATER FOR 111 WK (STUDY DURATION: 111 WK), Dose: 0, 62, 125 PPM IN DRINKING WATER FOR 111 WK (STUDY DURATION: 111 WK)) was “inactive; negative” and the carcinogen call (Species: RAT, Strain/Sex: F344/MALE, Route: ORAL, Dose: 0, 62, 125 PPM IN DRINKING WATER FOR 111 WK (STUDY DURATION: 111 WK), Dose: 0, 62, 125 PPM IN DRINKING WATER FOR 111 WK (STUDY DURATION: 111 WK)) was “inactive; negative”.
`ClCC1CO1` (stereo unspecified) was tested, and the carcinogen call (Species: MOUSE, Route: DERMAL, Tumor Site: Type of Lesion: INTEGUMENTARY SYSTEM (SKIN)) was “active; positive”, the carcinogen call (Species: MOUSE, Route: SUBCUTANEOUS, Tumor Site: Type of Lesion: INJECTION SITE) was “active; positive” and the carcinogen call (Species: RAT, Strain/Sex: WISTAR/FEMALE, Route: GAVAGE, Dose: 0, 2, 10 MG/KG IN WATER 5 D/WK FOR 104 WK (STUDY DURATION: 24 MO), Dose: 0, 2, 10 MG/KG IN WATER 5 D/WK FOR 104 WK (STUDY DURATION: 24 MO), Tumor Site: Type of Lesion: FORESTOMACH: SQUAMOUS CELL CARCINOMA) was “active; positive”. For the same compound, the carcinogen call (Species: RAT, Strain/Sex: WISTAR/MALE, Route: GAVAGE, Dose: 0, 2, 10 MG/KG IN WATER 5 D/WK FOR 104 WK (STUDY DURATION: 24 MO), Dose: 0, 2, 10 MG/KG IN WATER 5 D/WK FOR 104 WK (STUDY DURATION: 24 MO), Tumor Site: Type of Lesion: FORESTOMACH: SQUAMOUS CELL CARCINOMA) was “active; positive”.
`CCc1nc(N)nc(N)c1-c1ccc(Cl)cc1` was tested, and the carcinogen call (Species: MOUSE, Strain/Sex: B6C3F1/FEMALE, Route: ORAL, Dose: 0, 500, 1000 PPM IN DIET, Dose: 0, 500, 1000 PPM IN DIET) was “inactive; negative”, the carcinogen call (Species: RAT, Strain/Sex: F344/FEMALE, Route: ORAL, Dose: 0, 200, 400 PPM IN DIET 5 D/WK, Dose: 0, 200, 400 PPM IN DIET 5 D/WK) was “inactive; negative” and the carcinogen call (Species: RAT, Strain/Sex: F344/MALE, Route: ORAL, Dose: 0, 200, 400 PPM IN DIET 5 D/WK, Dose: 0, 200, 400 PPM IN DIET 5 D/WK) was “inactive; negative”.
For `Cc1cc2ncccc2c2nc(N)n(C)c12`, the carcinogen call (Species: MOUSE, Strain/Sex: C57BL/6N/FEMALE, Route: ORAL, Dose: 0, 300 PPM IN DIET FOR 92 WK (STUDY DURATION: 92 WK), Tumor Site: Type of Lesion: COLON: ADENOCARCINOMA, CECUM: ADENOCARCINOMA, LIVER: HEPATOCELLULAR ADENOMA, HEPATOCELLULAR CARCINOMA, OR FIBROSARCOMA, Tumor Site: Type of Lesion: COLON: ADENOCARCINOMA, CECUM: ADENOCARCINOMA, LIVER: HEPATOCELLULAR ADENOMA, HEPATOCELLULAR CARCINOMA, OR FIBROSARCOMA) was “active; positive”, the carcinogen call (Species: MOUSE, Strain/Sex: CDF1/FEMALE, Route: ORAL, Dose: 0, 0.04% IN THE DIET FOR STUDY DURATION (STUDY DURATION: LIFESPAN), Tumor Site: Type of Lesion: FORESTOMACH: PAPILLOMA, SQUAMOUS CELL CARCINOMA, LIVER: HEPATOCELLULAR ADENOMA, HEPATOCELLULAR CARCINOMA) was “active; positive” and the carcinogen call (Species: MOUSE, Strain/Sex: CDF1/MALE, Route: ORAL, Dose: 0, 0.04% IN THE DIET FOR STUDY DURATION (STUDY DURATION: LIFESPAN), Tumor Site: Type of Lesion: FORESTOMACH: PAPILLOMA, SQUAMOUS CELL CARCINOMA, LIVER: CHOLANGIOCARCINOMA) was “active; positive”. For the same compound, the carcinogen call (Species: RAT, Strain/Sex: F344/MALE, Route: ORAL, Dose: 0, 0.03% IN DIET (DAILY INTAKE: 3.8 MG) FOR 286 D (STUDY DURATION: 286 D), Tumor Site: Type of Lesion: ZYMBAL GLAND: SQUAMOUS CELL CARCINOMA, ORAL CAVITY: SQUAMOUS CELL CARCINOMA OR SEBACEOUS SQUAMOUS CELL CARCINOMA, COLON:, Tumor Site: Type of Lesion: ZYMBAL GLAND: SQUAMOUS CELL CARCINOMA, ORAL CAVITY: SQUAMOUS CELL CARCINOMA OR SEBACEOUS SQUAMOUS CELL CARCINOMA, COLON:) was “active; positive”, the carcinogen call (Species: RAT, Strain/Sex: F344/MALE, Route: ORAL, Dose: 0, 0.03% IN DIET (DAILY INTAKE: 5.6 MG) FOR 286 D (STUDY DURATION: 286 D), Tumor Site: Type of Lesion: ZYMBAL GLAND: SQUAMOUS CELL CARCINOMA, ORAL CAVITY: SQUAMOUS CELL CARCINOMA OR SEBACEOUS SQUAMOUS CELL CARCINOMA, COLON:, Tumor Site: Type of Lesion: ZYMBAL GLAND: SQUAMOUS CELL CARCINOMA, ORAL CAVITY: SQUAMOUS CELL CARCINOMA OR SEBACEOUS SQUAMOUS CELL CARCINOMA, COLON:) was “active; positive” and the carcinogen call (Species: RAT, Strain/Sex: WISTAR/MALE, Route: INTRAGASTRIC, Dose: 0, 10 MG/KG IN ACIDIFIED WATER 1/D FOR 2 WK (STUDY DURATION: 58 WK), Tumor Site: Type of Lesion: ZYMBAL GLAND: CARCINOMA) was “active; positive”.
For `CC(C)=CCC/C(C)=C/C=C/C(C)=C/C=C/C(C)=C/C=C/C=C(C)/C=C/C=C(C)/C=C/C=C(\C)CCC=C(C)C`, the carcinogen call (Species: MOUSE, Strain/Sex: C57BL/6J/MALE, Route: ORAL, Dose: 0, 50, 200 PPM IN DRINKING WATER FOR 80 WK (STUDY DURATION: 80 WK), Dose: 0, 50, 200 PPM IN DRINKING WATER FOR 80 WK (STUDY DURATION: 80 WK)) was “inactive; negative”.
